Assay results published in publication PMC7586336 (Journal of Medicinal Chemistry, 2020).
≈ marks a conversion by molar mass, not a printed value.

How the values were obtained:
P. aeruginosa PAO1 wt = test: Antibiotic susceptibility; assay type: cell-based, Pseudomonas aeruginosa
P. aeruginosa PA14 ΔlecA = test: Antibiotic susceptibility; assay type: cell-based; settings: Pseudomonas aeruginosa
P. aeruginosa PA14 ΔlecB = test: Antibiotic susceptibility; assay type: cell-based; settings: Pseudomonas aeruginosa
E. coli gyrase = E. coli gyrase (Escherichia coli, UniProt P0AES4+P0AES6); assay type: biochemical
P. aeruginosa PA14 wt = test: Antibiotic susceptibility; assay type: cell-based, Pseudomonas aeruginosa
[1] = Microsomal stability, mouse liver microsomes; assay type: in vitro ADME; settings: one experiment
[2] = Microsomal stability, human liver microsomes; assay type: in vitro ADME; settings: one experiment
HEK293 cells = test: Cytotoxicity; assay type: cell-based, human; settings: HEK 293 and A549, 100 μM, 48 h incubation
Calu-3 HTB-55 = test: Cell permeability, Transwell system; assay type: in vitro ADME, human; settings: after 4 h, data not shown
E. coli DSM 1116 = test: Antibiotic susceptibility; assay type: cell-based; settings: Escherichia coli, DSM1116
E. coli K12 MG1655 = test: Antibiotic susceptibility; assay type: cell-based; settings: Escherichia coli
A549 cells = test: Cytotoxicity; assay type: cell-based, human; settings: 48 h, MTT
[3] = P. aeruginosa PAO1 wt + 1 μg/mL PMBN
[4] = P. aeruginosa PA14 wt + 1 μg/mL PMBN

Sequence of E. coli gyrase (P0AES4 whole entry, one chain of several): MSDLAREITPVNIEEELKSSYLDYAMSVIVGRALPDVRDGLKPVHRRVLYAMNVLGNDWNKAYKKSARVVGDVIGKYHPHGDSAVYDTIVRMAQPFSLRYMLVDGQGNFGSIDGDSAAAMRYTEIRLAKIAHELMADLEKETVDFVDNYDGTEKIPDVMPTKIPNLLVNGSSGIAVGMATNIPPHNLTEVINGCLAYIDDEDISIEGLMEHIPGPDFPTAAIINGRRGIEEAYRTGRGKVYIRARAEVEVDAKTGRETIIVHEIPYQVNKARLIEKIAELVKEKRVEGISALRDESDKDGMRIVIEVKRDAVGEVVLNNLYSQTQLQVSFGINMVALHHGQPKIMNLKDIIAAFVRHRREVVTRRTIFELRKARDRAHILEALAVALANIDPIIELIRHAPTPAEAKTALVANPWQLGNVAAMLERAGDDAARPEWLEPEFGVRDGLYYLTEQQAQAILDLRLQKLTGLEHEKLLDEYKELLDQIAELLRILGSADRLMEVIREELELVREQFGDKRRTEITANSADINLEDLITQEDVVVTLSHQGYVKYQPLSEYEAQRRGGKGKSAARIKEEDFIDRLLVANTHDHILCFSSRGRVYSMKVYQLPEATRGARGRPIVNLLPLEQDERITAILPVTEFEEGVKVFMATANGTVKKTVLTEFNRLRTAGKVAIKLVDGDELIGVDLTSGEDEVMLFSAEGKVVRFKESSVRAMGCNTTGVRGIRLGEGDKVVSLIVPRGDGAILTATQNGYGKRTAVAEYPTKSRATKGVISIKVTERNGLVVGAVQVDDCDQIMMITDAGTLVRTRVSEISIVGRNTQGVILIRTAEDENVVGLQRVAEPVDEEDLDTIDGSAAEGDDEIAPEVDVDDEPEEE

Row | Compound | MIC (P. aeruginosa PAO1 wt; Pseudomonas aeruginosa, PAO1) [µg/mL] | MIC (P. aeruginosa PA14 ΔlecA) [µg/mL] | MIC (P. aeruginosa PA14 ΔlecB) [µg/mL] | MIC (P. aeruginosa PAO1 wt; [3]) [µg/mL] | factor of decrease in gyrase inhibitory concentration compared to 3 (E. coli gyrase) | MIC (P. aeruginosa PA14 wt; [4]) [µg/mL] | MIC (P. aeruginosa PA14 wt; Pseudomonas aeruginosa, PA14) [µg/mL] | metabolic stability CLMIC MLM [1] [μL/min/mg protein] | metabolic stability CLMIC HLM [2] [μL/min/mg protein] | acute cytotoxicity (in words) (HEK293 cells) | permeation (apical to basal) over Calu-3 HTB-55 cells (Calu-3 HTB-55) | MIC (E. coli DSM 1116) [µg/mL] | MIC (E. coli K12 MG1655) [µg/mL] | cytotoxicity @ 100 μM A549 (A549 cells)
1 | O=C(O)c1cn(C2CC2)c2cc(N3CCNCC3)c(F)cc2c1=O [compound 3, ciprofloxacin, reference compound] | 0.025 to 0.08 (≈ 0.0754 to 0.241 µM) | 0.05 to 0.08 (≈ 0.151 to 0.241 µM) | 0.05 to 0.08 (≈ 0.151 to 0.241 µM) |  |  |  |  |  |  |  |  |  |  | 
2 | C#CCN1CCN(c2cc3c(cc2F)c(=O)c(C(=O)O)cn3C2CC2)CC1 [compound 20, N-Propargyl-ciprofloxacin] | 4 to 8 (≈ 10.8 to 21.7 µM) | 4 to 8 (≈ 10.8 to 21.7 µM) |  | 1 to 2 | 3.5 | 0.025 to 0.5 | 2 to 4 (≈ 5.41 to 10.8 µM) |  |  |  |  |  |  | 
3 | O=C(Cn1cc(CN2CCN(c3cc4c(cc3F)c(=O)c(C(=O)O)cn4C3CC3)CC2)nn1)Nc1ccc(S[C@@H]2O[C@H](CO)[C@H](O)[C@H](O)[C@H]2O)cc1 [compound 22] | 16 to 32 (≈ 21.6 to 43.3 µM) | 16 to 32 (≈ 21.6 to 43.3 µM) | 16 to 32 (≈ 21.6 to 43.3 µM) | 4 to 8 |  | 4 to 16 |  | 10 | 10 | no cytotoxicity | No detectable permeation | 2 to 4 (≈ 2.7 to 5.41 µM) |  | 
4 | O=C(Cn1cc(CCN2CCN(c3cc4c(cc3F)c(=O)c(C(=O)O)cn4C3CC3)CC2)nn1)Nc1ccc(S[C@@H]2O[C@H](CO)[C@H](O)[C@H](O)[C@H]2O)cc1 [compound 23] |  |  |  | 32 to 64 |  | 16 to 64 |  |  |  |  |  |  | 8 to 16 (≈ 10.6 to 21.2 µM) | 
5 | O=C(CCn1cc(CN2CCN(c3cc4c(cc3F)c(=O)c(C(=O)O)cn4C3CC3)CC2)nn1)Nc1ccc(S[C@@H]2O[C@H](CO)[C@H](O)[C@H](O)[C@H]2O)cc1 [compound 24] |  | 8 to 16 (≈ 10.6 to 21.2 µM) | 8 to 32 (≈ 10.6 to 42.5 µM) | 4 to 8 |  | 8 to 16 | 8 to 16 (≈ 10.6 to 21.2 µM) |  |  |  |  | 2 to 4 (≈ 2.65 to 5.31 µM) |  | 
6 | O=C(CCn1cc(CCN2CCN(c3cc4c(cc3F)c(=O)c(C(=O)O)cn4C3CC3)CC2)nn1)Nc1ccc(S[C@@H]2O[C@H](CO)[C@H](O)[C@H](O)[C@H]2O)cc1 [compound 25] |  |  |  | 32 to 64 |  | 32 to 64 |  |  |  |  |  |  |  | 
7 | O=C(CCCn1cc(CN2CCN(c3cc4c(cc3F)c(=O)c(C(=O)O)cn4C3CC3)CC2)nn1)Nc1ccc(S[C@@H]2O[C@H](CO)[C@H](O)[C@H](O)[C@H]2O)cc1 [compound 26] | 16 to 32 (≈ 20.8 to 41.7 µM) | 8 to 16 (≈ 10.4 to 20.8 µM) | 8 to 16 (≈ 10.4 to 20.8 µM) | 4 to 8 |  |  | 8 to 16 (≈ 10.4 to 20.8 µM) |  |  |  |  | 2 to 32 (≈ 2.6 to 41.7 µM) | 1 to 2 (≈ 1.3 to 2.6 µM) | 
8 | O=C(CCCn1cc(CCN2CCN(c3cc4c(cc3F)c(=O)c(C(=O)O)cn4C3CC3)CC2)nn1)Nc1ccc(S[C@@H]2O[C@H](CO)[C@H](O)[C@H](O)[C@H]2O)cc1 [compound 27] |  |  |  | 32 to 64 |  | 32 to 64 |  |  |  |  |  | 4 to 32 (≈ 5.12 to 40.9 µM) |  | 
9 | O=C(CCCCn1cc(CN2CCN(c3cc4c(cc3F)c(=O)c(C(=O)O)cn4C3CC3)CC2)nn1)Nc1ccc(S[C@@H]2O[C@H](CO)[C@H](O)[C@H](O)[C@H]2O)cc1 [compound 28] | 32 to 64 (≈ 40.9 to 81.9 µM) |  | 32 to 64 (≈ 40.9 to 81.9 µM) | 8 to 16 |  | 2 to 8 |  |  |  |  |  | 4 to 32 (≈ 5.12 to 40.9 µM) | 2 to 4 (≈ 2.56 to 5.12 µM) | 
10 | O=C(CCCCn1cc(CCN2CCN(c3cc4c(cc3F)c(=O)c(C(=O)O)cn4C3CC3)CC2)nn1)Nc1ccc(S[C@@H]2O[C@H](CO)[C@H](O)[C@H](O)[C@H]2O)cc1 [compound 29] |  |  |  | 32 to 64 |  | 32 to 64 |  |  |  |  |  | 4 to 32 (≈ 5.03 to 40.2 µM) |  | 
11 | C[C@@H]1O[C@H](CNS(=O)(=O)c2ccc(CCn3cc(CN4CCN(c5cc6c(cc5F)c(=O)c(C(=O)O)cn6C5CC5)CC4)nn3)s2)[C@@H](O)[C@H](O)[C@@H]1O [compound 30] |  |  |  | 32 to 64 |  |  |  | 10 | 15 | no cytotoxicity | No detectable permeation | 16 to 32 (≈ 21 to 42 µM) | 8 to 16 (≈ 10.5 to 21 µM) | –9 ± 15 % inhibition
